Assay results as given in patent US20150031056A1, “DEVELOPMENT OF SPECIFIC IMMUNOASSAY CRITICAL REAGENTS FOR PHARMACOKINETIC ASSESSMENTS OF PEPTIDE POLYMERS IN PRECLINICAL AND CLINICAL MATRICES” (priority 2011, published 2015).
Values joined by “and” are separate entries in the source; they are usually repeats but may differ in a detail not shown here. Identical values can stand only once.

Test: Pilot PK study in Sprague Dawley rats (serum Copaxone by ELISA)
Assay type: in vivo
Details: Copaxone 20 mg/kg B.wt
Description: A series of serum samples, each containing Copaxone spiked at known concentration and forming a set of calibrator standards to generate a calibration curve to quantify Copaxone in the serum samples of the given species was made in the serum with Copaxone at levels […], 30000 ng/ml, 4000 ng/ml, 2000 ng/ml, 1000 ng/ml, 500 ng/ml, 250 ng/ml, 125 ng/ml, 62.5 ng/ml, 31.3 ng/ml, 7.8 ng/ml and 3.9 ng/ml in neat serum.
ELISA plate is precoated with Polyclonal Rabbit Anti Copaxone antibodies and the appropriately diluted serum samples constituting the calibrator standards and samples for analysis were incubated for binding to the coated Anti Copaxone antibodies and unbound and poorly bound serum components were separated during washing with PBST (Phosphate buffered saline with 0.1% tween 20).The bound Copaxone was detected using biotin labeled Polyclonal Rabbit Anti Copaxone antibodies and streptavidin Alkaline phosphatase conjugate. Substrate was added to the wells and the blue colored signal obtained at 640 nm for the test samples is compared with the calibration curve prepared from concentration-response relationship of the calibrators to determine the unknown concentration of Copaxone in the serum samples.
Three male Sprague Dawley rats were dosed with Copaxone at 20 mg per kg body weight with a dosing volume of […] at the dose concentration of 20mg/ml per day. The dosage was selected based on minimum feasible dose (based on dose volume of 1 ml per kg) for the given strength of 20 mg/ml. Each animal was weighed and dosed with Copaxone @ 20 mg/kg B.wt. Blood samples were collected in 10 μl of Protease inhibitor from each animal at the time point 5 min, 10 min, 15 min, 20 min, 30 min, 45 min, 1, 2, 3, 4, 6, 10 and 24 hours. The blood samples were stored on wet ice for serum separation. The serum was separated and stored at −80° C. till the shipment. The samples till 24 hours were shipped in Dry Ice […].

[1] = Mean of three male Sprague Dawley rats
[2] = individual male Sprague Dawley rat (Rat 1, 2, 3)

Question: What does the source list for Glatiramer acetate [Copaxone]?
Answer: AUC0-inf [1]: 25507 ng·min/mL; AUC0-t [1]: 25211.81 ng·min/mL; AUC % Extrap_obs (Should be < 5%) [1]: 1.24%; Cmax [1]: 1824.12 ng/mL; T1/2 [1]: 27.45 min; Tmax [1]: 11.67 min; AUC0-inf [2]: 25654.06 ng·min/mL and 15705.6 ng·min/mL and 35161.34 ng·min/mL; AUC0-t [2]: 25491.53 ng·min/mL and 15411.63 ng·min/mL and 34732.28 ng·min/mL; AUC % Extrap_obs (Should be < 5%) [2]: 0.63% and 1.87% and 1.22%; Cmax [2]: 968.69 ng/mL and 510.79 ng/mL and 3992.88 ng/mL; Tmax [2]: 15 min and 10 min; T1/2 (individual male Sprague Dawley rat (Rat 1, 2, 3), samples 5 min to 24 hours): 31.18 min and 23.39 min and 27.79 min
